Results published in patent US9527867B2, “Antibacterial biaromatic derivatives” (Actelion Pharmaceuticals Ltd., priority 2013, dated 2016).
≈ marks a conversion by molar mass, not a printed value.

Tests used:
Experiment in all cases: Bacterial growth minimal inhibitory concentration (broth microdilution, CLSI M7-A7)
Format in all cases: cell-based
[1] = system: Acinetobacter baumannii T6474; conditions: multiply-resistant strain (in particular quinolone-resistant); for MIC: Acinetobacter baumannii, T6474, cation-adjusted Mueller-Hinton Broth
Procedure: (§1) Minimal Inhibitory Concentrations (MICs; mg/L) were determined in cation-adjusted Mueller-Hinton Broth by a microdilution method following the description given in “Methods for Dilution Antimicrobial Susceptibility Tests for Bacteria that Grow Aerobically”, Approved standard, 7th ed., Clinical and Laboratory Standards Institute (CLSI) Document M7-A7, Wayne, Pa., USA (2006).
(§2) All Example compounds were tested against several Gram positive and Gram negative bacteria. […] Staphylococcus aureus A798, Enterococcus faecium A949 and Acinetobacter baumannii T6474 are multiply-resistant strains (in particular quinolone-resistant), while Moraxella catarrhalis A894 is a quinolone-sensitive strain and Staphylococcus aureus ATCC29213 is a methicillin-sensitive and quinolone-sensitive strain.

[2] = system: Enterococcus faecium A949; conditions: multiply-resistant strain (in particular quinolone-resistant); for MIC: Enterococcus faecium, A949, cation-adjusted Mueller-Hinton Broth, read-out: MIC for E. faecium A949
Procedure: as §1, §2

[3] = system: Moraxella catarrhalis A894; conditions: quinolone-sensitive strain; for MIC: Moraxella catarrhalis, A894, cation-adjusted Mueller-Hinton Broth
Procedure: as §1, §2

[4] = system: Staphylococcus aureus A798; conditions: multiply-resistant strain (in particular quinolone-resistant); for MIC: Staphylococcus aureus, A798, cation-adjusted Mueller-Hinton Broth, read-out: MIC for S. aureus A798
Procedure: as §1, §2

[5] = system: Staphylococcus aureus ATCC29213; conditions: methicillin-sensitive and quinolone-sensitive strain; for MIC: Staphylococcus aureus, ATCC29213, cation-adjusted Mueller-Hinton Broth, read-out: MIC for S. aureus ATCC29213
Procedure: as §1, §2

[6] = cation-adjusted Mueller-Hinton Broth

Row | Compound | MIC [1] [µg/mL] | MIC [2] [µg/mL] | MIC [3] [µg/mL] | MIC [4] [µg/mL] | MIC [5] [µg/mL] | MIC for A. baumannii T6474 [1, 6] [µg/mL] | MIC for E. faecium A949 [2, 6] [µg/mL] | MIC for M. catarrhalis A894 [3, 6] [µg/mL] | MIC for S. aureus A798 [4, 6] [µg/mL] | MIC for S. aureus ATCC29213 [5, 6] [µg/mL]
1 | COc1cccc(-c2ccnc(CNCC[C@@H]3CN(c4ccc5c(c4)NC(=O)CS5)C(=O)O3)c2)c1 [Example 21, 6-[(R)-5-(2-{[4-(3-methoxy-phenyl)-pyridin-2-ylmethyl]-amino}-ethyl)-2-oxo-oxazolidin-3-yl]-4H-benzo[1,4]thiazin-3-one] | 0.25 (≈ 0.51 µM) | 1 (≈ 2.04 µM) | 0.031 (≈ 0.0632 µM) | 0.125 (≈ 0.255 µM) | 0.125 (≈ 0.255 µM) |  |  |  |  | 
2 | N#Cc1cccc(-c2cccc(CNCC[C@H]3CN(c4ccc5c(n4)NC(=O)CS5)C(=O)O3)c2O)n1 [Example 94, 6-[2-hydroxy-3-({2-[(S)-2-oxo-3-(3-oxo-3,4-dihydro-2H-pyrido[3,2-b][1,4]thiazin-6-yl)-oxazolidin-5-yl]-ethylamino}-methyl)-phenyl]-pyridine-2-carbonitrile] | 0.031 (≈ 0.0617 µM) | 0.125 (≈ 0.249 µM) | ≤ 0.016 | ≤ 0.016 | ≤ 0.016 |  |  |  |  | 
3 | CCOc1cncc(-c2cccc(CNCC[C@H]3CN(c4ccc5c(n4)NC(=O)CO5)C(=O)O3)c2)c1 [Example 84, 6-((S)-5-{2-[3-(5-ethoxy-pyridin-3-yl)-benzylamino]-ethyl}-2-oxo-oxazolidin-3-yl)-4H-pyrido[3,2-b][1,4]oxazin-3-one] | 0.5 (≈ 1.02 µM) | 8 (≈ 16.3 µM) | ≤ 0.063 | 0.125 (≈ 0.255 µM) | 0.25 (≈ 0.511 µM) |  |  |  |  | 
4 | COc1ccnc(-c2cccc(CNCC[C@@H]3CN(c4ccc5c(c4)NC(=O)CS5)C(=O)O3)c2)n1 [Example 23, 6-((R)-5-{2-[3-(4-methoxy-pyrimidin-2-yl)-benzylamino]-ethyl}-2-oxo-oxazolidin-3-yl)-4H-benzo[1,4]thiazin-3-one] | 0.25 (≈ 0.509 µM) | 1 (≈ 2.03 µM) | ≤ 0.016 | 0.063 (≈ 0.128 µM) | 0.063 (≈ 0.128 µM) |  |  |  |  | 
5 | COc1ccc(-c2cccc(CNCC[C@@H]3CN(c4ccc5c(c4)NC(=O)CS5)C(=O)O3)c2)cn1 [Example 16, 6-((R)-5-{2-[3-(6-methoxy-pyridin-3-yl)-benzylamino]-ethyl}-2-oxo-oxazolidin-3-yl)-4H-benzo[1,4]thiazin-3-one] | 1 (≈ 2.04 µM) | 2 (≈ 4.08 µM) | 0.063 (≈ 0.128 µM) | 0.5 (≈ 1.02 µM) | 0.5 (≈ 1.02 µM) |  |  |  |  | 
6 | COc1cncc(-c2cccc(CNCC[C@H]3CN(c4ccc5c(n4)NC(=O)CO5)C(=O)O3)c2)n1 [Example 91, 6-((S)-5-{2-[3-(6-methoxy-pyrazin-2-yl)-benzylamino]-ethyl}-2-oxo-oxazolidin-3-yl)-4H-pyrido[3,2-b][1,4]oxazin-3-one] | 0.063 (≈ 0.132 µM) | 2 (≈ 4.2 µM) | ≤ 0.016 | 0.031 (≈ 0.0651 µM) | 0.031 (≈ 0.0651 µM) |  |  |  |  | 
7 | COc1cc(-c2cccc(CNCC[C@H]3CN(c4ccc5c(n4)NC(=O)CO5)C(=O)O3)c2)ccc1C#N [Example 75, 3-methoxy-3′-({2-[(S)-2-oxo-3-(3-oxo-3,4-dihydro-2H-pyrido[3,2-b][1,4]oxazin-6-yl)-oxazolidin-5-yl]-ethylamino}-methyl)-biphenyl-4-carbonitrile] | 1 (≈ 2 µM) | 8 (≈ 16 µM) | ≤ 0.063 | 0.5 (≈ 1 µM) | 0.5 (≈ 1 µM) |  |  |  |  | 
8 | N#Cc1cccc(-c2cccc(CNCC[C@H]3CN(c4ccc5c(n4)NC(=O)CO5)C(=O)O3)c2O)n1 [Example 92, 6-[2-hydroxy-3-({2-[(S)-2-oxo-3-(3-oxo-3,4-dihydro-2H-pyrido[3,2-b][1,4]oxazin-6-yl)-oxazolidin-5-yl]-ethylamino}-methyl)-phenyl]-pyridine-2-carbonitrile] | 0.063 (≈ 0.129 µM) | 0.5 (≈ 1.03 µM) | ≤ 0.016 | ≤ 0.016 | 0.031 (≈ 0.0637 µM) |  |  |  |  | 
9 | N#Cc1ccc(O)c(-c2cccc(CNCC[C@H]3CN(c4ccc5c(n4)NC(=O)CO5)C(=O)O3)c2)c1 [Example 45, 6-hydroxy-3′-({2-[(S)-2-oxo-3-(3-oxo-3,4-dihydro-2H-pyrido[3,2-b][1,4]oxazin-6-yl)-oxazolidin-5-yl]-ethylamino}-methyl)-biphenyl-3-carbonitrile] | 2 (≈ 4.12 µM) | > 8 | 0.125 (≈ 0.257 µM) | 4 (≈ 8.24 µM) | 2 (≈ 4.12 µM) |  |  |  |  | 
10 | N#Cc1cccc(-c2cccc(CNCC[C@H]3CN(c4ccc5c(c4)NC(=O)CO5)C(=O)O3)c2O)n1 [Example 88, 6-[2-hydroxy-3-({2-[(S)-2-oxo-3-(3-oxo-3,4-dihydro-2H-benzo[1,4]oxazin-6-yl)-oxazolidin-5-yl]-ethylamino}-methyl)-phenyl]-pyridine-2-carbonitrile] | 0.25 (≈ 0.515 µM) | 4 (≈ 8.24 µM) | ≤ 0.016 | 0.25 (≈ 0.515 µM) | 0.125 (≈ 0.257 µM) |  |  |  |  | 
11 | COc1cc(C#N)cc(-c2cccc(CNCC[C@@H]3CN(c4ccc5c(c4)NC(=O)CS5)C(=O)O3)c2)c1 [Example 9, 5-methoxy-3′-({2-[(R)-2-oxo-3-(3-oxo-3,4-dihydro-2H-benzo[1,4]thiazin-6-yl)-oxazolidin-5-yl]-ethylamino}-methyl)-biphenyl-3-carbonitrile] | 0.25 (≈ 0.486 µM) | 1 (≈ 1.94 µM) | ≤ 0.016 | 0.031 (≈ 0.0602 µM) | 0.031 (≈ 0.0602 µM) |  |  |  |  | 
12 | O=C1COc2ccc(N3C[C@H](CCNCc4cccc(-c5cccc(N6CCC(O)C6)n5)c4)OC3=O)nc2N1 (mixture of isomers) [Example 57, 6-[(S)-5-(2-{3-[6-((RS)-3-hydroxy-pyrrolidin-1-yl)-pyridin-2-yl]-benzylamino}-ethyl)-2-oxo-oxazolidin-3-yl]-4H-pyrido[3,2-b][1,4]oxazin-3-one] | 2 | 8 | 0.25 | 1 | 2 |  |  |  |  | 
13 | O=C1COc2ccc(N3C[C@H](CCNCc4cccc(-c5cccc(OC[C@@H]6C[C@@H](O)[C@@H](O)C6)n5)c4)OC3=O)nc2N1 (racemic) [Example 69, 6-[(S)-5-(2-{3-[6-((1rs,3R,4S)-3,4-dihydroxy-cyclopentylmethoxy)-pyridin-2-yl]-benzylamino}-ethyl)-2-oxo-oxazolidin-3-yl]-4H-pyrido[3,2-b][1,4]oxazin-3-one] |  |  |  |  |  | 1 | 8 | 0.063 | 0.25 | 1
14 | COc1cccc(-c2cccc(CNCC[C@@H]3CN(c4ccc5c(c4)NC(=O)CS5)C(=O)O3)c2)c1 [Example 1, 6-((R)-5-{2-[(3′-methoxy-biphenyl-3-ylmethyl)-amino]-ethyl}-2-oxo-oxazolidin-3-yl)-4H-benzo[1,4]thiazin-3-one] | 0.5 (≈ 1.02 µM) | 2 (≈ 4.08 µM) | 0.031 (≈ 0.0633 µM) | 0.25 (≈ 0.511 µM) | 0.25 (≈ 0.511 µM) |  |  |  |  | 
15 | N#Cc1cccnc1-c1cccc(CNCC[C@H]2CN(c3ccc4c(n3)NC(=O)CO4)C(=O)O2)c1 [Example 62, 2-[3-({2-[(S)-2-oxo-3-(3-oxo-3,4-dihydro-2H-pyrido[3,2-b][1,4]oxazin-6-yl)-oxazolidin-5-yl]-ethylamino}-methyl)-phenyl]-nicotinonitrile] | 1 (≈ 2.13 µM) | 16 (≈ 34 µM) | ≤ 0.063 | 2 (≈ 4.25 µM) | 1 (≈ 2.13 µM) |  |  |  |  | 
16 | COc1cccc(-c2cccc(CNCC[C@H]3CN(c4ccc5c(n4)NC(=O)CO5)C(=O)O3)c2O)n1 [Example 93, 6-((S)-5-{2-[2-hydroxy-3-(6-methoxy-pyridin-2-yl)-benzylamino]-ethyl}-2-oxo-oxazolidin-3-yl)-4H-pyrido[3,2-b][1,4]oxazin-3-one] | 0.063 (≈ 0.128 µM) | 0.25 (≈ 0.509 µM) | ≤ 0.016 | ≤ 0.016 | ≤ 0.016 |  |  |  |  | 
17 | N#CCOc1cccc(-c2cccc(CNCC[C@H]3CN(c4ccc5c(n4)NC(=O)CO5)C(=O)O3)c2)c1 [Example 65, [3′-({2-[(S)-2-oxo-3-(3-oxo-3,4-dihydro-2H-pyrido[3,2-b][1,4]oxazin-6-yl)-oxazolidin-5-yl]-ethylamino}-methyl)-biphenyl-3-yloxy]-acetonitrile] | 2 (≈ 4 µM) | 16 (≈ 32 µM) | ≤ 0.063 | 1 (≈ 2 µM) | 1 (≈ 2 µM) |  |  |  |  | 
18 | COc1cnnc(-c2cncc(CNCC[C@H]3CN(c4ccc5c(n4)NC(=O)CO5)C(=O)O3)c2)c1 [Example 110, (S)-6-(5-(2-(((5-(5-methoxypyridazin-3-yl)pyridin-3-yl)methyl)amino)ethyl)-2-oxooxazolidin-3-yl)-2H-pyrido[3,2-b][1,4]oxazin-3(4H)-one] | 2 (≈ 4.19 µM) | > 8 | 0.125 (≈ 0.262 µM) | 4 (≈ 8.38 µM) | 4 (≈ 8.38 µM) |  |  |  |  | 
19 | N#Cc1cccc(-c2cccc(CNCC[C@H]3CN(c4ccc5c(c4)NC(=O)CO5)C(=O)O3)c2)c1 [Example 82, 3′-({2-[(S)-2-oxo-3-(3-oxo-3,4-dihydro-2H-benzo[1,4]oxazin-6-yl)-oxazolidin-5-yl]-ethylamino}-methyl)-biphenyl-3-carbonitrile] | 0.5 (≈ 1.07 µM) | 4 (≈ 8.54 µM) | ≤ 0.016 | 0.5 (≈ 1.07 µM) | 0.5 (≈ 1.07 µM) |  |  |  |  | 
20 | COc1cccc(-c2cccc(CNCC[C@@H]3CN(c4ccc5c(c4)NC(=O)CS5)C(=O)O3)c2F)c1 [Example 12, 6-((R)-5-{2-[(2-fluoro-3′-methoxy-biphenyl-3-ylmethyl)-amino]-ethyl}-2-oxo-oxazolidin-3-yl)-4H-benzo[1,4]thiazin-3-one] | 2 (≈ 3.94 µM) | 2 (≈ 3.94 µM) | 0.063 (≈ 0.124 µM) | 0.5 (≈ 0.985 µM) | 0.5 (≈ 0.985 µM) |  |  |  |  | 
